# From ChEMBL document CHEMBL1127131, “Penems containing amino acid derived substituents at C-2” (1993)
# What was measured:
# Escherichia coli = assay: Minimum inhibitory concentration required for antibacterial activity against Escherichia coli; format: functional
# Salmonella = assay: Minimum inhibitory concentration required for antibacterial activity against Salmonella; format: functional
# Klebsiella = assay: Minimum inhibitory concentration required for antibacterial activity against Klebsiella; format: functional
# Staphylococcus = assay: Minimum inhibitory concentration required for antibacterial activity against Staphylococcus; format: functional
# [1] = Gram-positive geometric mean MIC for antibacterial activity (ug/mL); format: functional
# Providencia = assay: Minimum inhibitory concentration required for antibacterial activity against Providencia; format: functional
# [2] = Gram-negative geometric mean MIC of antibacterial activity; format: functional
# Serratia [3] = assay: Minimum inhibitory concentration required for antibacterial activity against Serratia; format: functional
# Enterobacter = assay: Minimum inhibitory concentration required for antibacterial activity against Enterobacter; format: functional
# Morganella = assay: Minimum inhibitory concentration required for antibacterial activity against Morganella; format: functional
# Enterococcus faecalis = assay: Minimum inhibitory required for antibacterial activity against Streptococcus faecalis; format: functional
# Micrococcus luteus = assay: Minimum inhibitory concentration required for antibacterial activity against Sarcina luteus; format: functional, sarcinea luteus
# Bacillus subtilis = assay: Minimum inhibitory concentration required for antibacterial activity against Bacillus subtilis; format: functional
# [4] = Gram-positive geometric mean MIC of antibacterial activity; format: functional
# [5] = Gram-positive vitro for its antibacterial activity of Geometric Mean MIC (ug/mL); format: functional
# Serratia [6] = assay: Minimum inhibitory concentration for antibacterial activity against Serratia; format: functional
compound,measurement,setting,value
C[C@@H](N)C1=C(C(=O)O)N2C(=O)[C@H]([C@@H](C)O)[C@H]2S1,MIC,Escherichia coli,11.7 µg/mL
same,MIC,Salmonella,5.04 µg/mL
same,MIC,Klebsiella,9.85 µg/mL
same,MIC,Staphylococcus,0.229 µg/mL
same,MIC,[1],0.29 µg/mL
same,MIC,Providencia,55.7 µg/mL
same,MIC,[2],14.3 µg/mL
same,MIC,Serratia [3],26.9 µg/mL
same,MIC,Enterobacter,10.1 µg/mL
same,MIC,Morganella,32 µg/mL
C[C@@H](O)[C@H]1C(=O)N2C(C(=O)O)=C(SC[C@@H](N)C(=O)O)S[C@H]12,MIC,Escherichia coli,0.25 µg/mL
same,MIC,Enterococcus faecalis,45.2 µg/mL
same,MIC,Salmonella,0.16 µg/mL
same,MIC,Klebsiella,0.17 µg/mL
same,MIC,Staphylococcus,1.82 µg/mL
same,MIC,Micrococcus luteus,4 µg/mL
same,MIC,Bacillus subtilis,0.5 µg/mL
same,MIC,Providencia,5.66 µg/mL
same,MIC,[2],0.49 µg/mL
same,MIC,Serratia [3],1.08 µg/mL
same,MIC,[4],3.01 µg/mL
same,MIC,Enterobacter,0.76 µg/mL
C[C@H](N)C1=C(C(=O)O)N2C(=O)[C@H]([C@@H](C)O)[C@H]2S1,MIC,Escherichia coli,21.9 µg/mL
same,MIC,Enterococcus faecalis,64 µg/mL
same,MIC,Salmonella,10.1 µg/mL
same,MIC,Klebsiella,17.1 µg/mL
same,MIC,Staphylococcus,0.26 µg/mL
same,MIC,[1],0.47 µg/mL
same,MIC,Micrococcus luteus,0.5 µg/mL
same,MIC,Bacillus subtilis,1 µg/mL
same,MIC,Providencia,64 µg/mL
same,MIC,[2],24.6 µg/mL
same,MIC,Serratia [3],45.3 µg/mL
same,MIC,Enterobacter,20.2 µg/mL
same,MIC,Morganella,64 µg/mL
CSCC[C@H](N)C1=C(C(=O)O)N2C(=O)[C@H]([C@@H](C)O)[C@H]2S1,MIC,Escherichia coli,11.7 µg/mL
same,MIC,Enterococcus faecalis,64 µg/mL
same,MIC,Salmonella,10.1 µg/mL
same,MIC,Klebsiella,12.1 µg/mL
same,MIC,Staphylococcus,0.214 µg/mL
same,MIC,[1],0.37 µg/mL
same,MIC,Micrococcus luteus,0.031 µg/mL
same,MIC,Bacillus subtilis,4 µg/mL
same,MIC,Providencia,55.7 µg/mL
same,MIC,[2],17.6 µg/mL
same,MIC,Serratia [3],38.1 µg/mL
same,MIC,Enterobacter,20.2 µg/mL
same,MIC,Morganella,64.1 µg/mL
C[C@@H](O)[C@H]1C(=O)N2C(C(=O)O)=C(SC[C@H](N)C(=O)O)S[C@H]12,MIC,Escherichia coli,6.46 µg/mL
same,MIC,Enterococcus faecalis,128 µg/mL
same,MIC,Salmonella,5.28 µg/mL
same,MIC,Klebsiella,4 µg/mL
same,MIC,Staphylococcus,1.94 µg/mL
same,MIC,[1],4 µg/mL
same,MIC,Micrococcus luteus,4 µg/mL
same,MIC,Bacillus subtilis,2.83 µg/mL
same,MIC,Providencia,42.7 µg/mL
same,MIC,[2],16 µg/mL
same,MIC,Serratia [3],17.3 µg/mL
same,MIC,Enterobacter,16 µg/mL
CSC[C@H](N)C1=C(C(=O)O)N2C(=O)[C@H]([C@@H](C)O)[C@H]2S1,MIC,Escherichia coli,12.4 µg/mL
same,MIC,Enterococcus faecalis,90.5 µg/mL
same,MIC,[5],0.45 µg/mL
same,MIC,Salmonella,5.04 µg/mL
same,MIC,Klebsiella,8.57 µg/mL
same,MIC,Staphylococcus,0.26 µg/mL
same,MIC,Micrococcus luteus,0.25 µg/mL
same,MIC,Bacillus subtilis,0.5 µg/mL
same,MIC,Providencia,97 µg/mL
same,MIC,[2],16.3 µg/mL
same,MIC,Serratia [3],22.6 µg/mL
same,MIC,Enterobacter,20.2 µg/mL
same,MIC,Morganella,128 µg/mL
C[C@@H](O)[C@H]1C(=O)N2C(C(=O)O)=C(COC(N)=O)S[C@H]12 [RITIPENEM],MIC,Escherichia coli,0.68 µg/mL
same,MIC,Enterococcus faecalis,5.7 µg/mL
same,MIC,Salmonella,0.5 µg/mL
same,MIC,Klebsiella,0.81 µg/mL
same,MIC,Staphylococcus,0.12 µg/mL
same,MIC,[1],0.16 µg/mL
same,MIC,Bacillus subtilis,0.06 µg/mL
same,MIC,Providencia,2.3 µg/mL
same,MIC,[2],1.2 µg/mL
same,MIC,Serratia [6],5.7 µg/mL
same,MIC,Enterobacter,3.2 µg/mL
same,MIC,Morganella,2 µg/mL
C[C@@H](O)[C@H]1C(=O)N2C(C(=O)O)=C([C@H](N)CCC(=O)O)S[C@H]12,MIC,Escherichia coli,3.11 µg/mL
same,MIC,Enterococcus faecalis,16 µg/mL
same,MIC,Salmonella,4 µg/mL
same,MIC,Klebsiella,3.73 µg/mL
same,MIC,Staphylococcus,0.735 µg/mL
same,MIC,[1],1 µg/mL
same,MIC,Micrococcus luteus,2 µg/mL
same,MIC,Bacillus subtilis,0.25 µg/mL
same,MIC,Providencia,16 µg/mL
same,MIC,[2],5.4 µg/mL
same,MIC,Serratia [3],13.4 µg/mL
same,MIC,Enterobacter,6.35 µg/mL
same,MIC,Morganella,16 µg/mL
C[C@@H](O)[C@H]1C(=O)N2C(C(=O)O)=C(CC[C@@H](N)C(=O)O)S[C@H]12,MIC,Escherichia coli,2.42 µg/mL
same,MIC,Enterococcus faecalis,45.3 µg/mL
same,MIC,Salmonella,1 µg/mL
same,MIC,Klebsiella,2.83 µg/mL
same,MIC,Staphylococcus,2.08 µg/mL
same,MIC,[1],2.7 µg/mL
same,MIC,Micrococcus luteus,4 µg/mL
same,MIC,Bacillus subtilis,1.01 µg/mL
same,MIC,Providencia,18.4 µg/mL
same,MIC,[2],4 µg/mL
same,MIC,Serratia [3],16 µg/mL
same,MIC,Enterobacter,2.52 µg/mL
same,MIC,Morganella,16 µg/mL
C[C@@H](O)[C@H]1C(=O)N2C(C(=O)O)=C(CSC[C@@H](N)C(=O)O)S[C@H]12,MIC,Escherichia coli,0.284 µg/mL
same,MIC,Enterococcus faecalis,16 µg/mL
same,MIC,Salmonella,0.25 µg/mL
same,MIC,Klebsiella,0.308 µg/mL
same,MIC,Staphylococcus,0.852 µg/mL
same,MIC,[1],1.1 µg/mL
same,MIC,Micrococcus luteus,0.5 µg/mL
same,MIC,Bacillus subtilis,0.25 µg/mL
same,MIC,Providencia,2 µg/mL
same,MIC,[2],0.51 µg/mL
same,MIC,Serratia [6],1.68 µg/mL
same,MIC,Enterobacter,0.63 µg/mL
same,MIC,Morganella,2 µg/mL
C[C@@H](O)[C@H]1C(=O)N2C(C(=O)O)=C(SCCOC(N)=O)S[C@H]12 [Sch-34343],MIC,Escherichia coli,0.3 µg/mL
same,MIC,Enterococcus faecalis,5.7 µg/mL
same,MIC,Salmonella,0.25 µg/mL
same,MIC,Klebsiella,0.35 µg/mL
same,MIC,Staphylococcus,0.11 µg/mL
same,MIC,[1],0.15 µg/mL
same,MIC,Bacillus subtilis,0.06 µg/mL
same,MIC,Providencia,0.87 µg/mL
same,MIC,[2],0.57 µg/mL
same,MIC,Serratia [6],4.8 µg/mL
same,MIC,Enterobacter,1.3 µg/mL
same,MIC,Morganella,2 µg/mL
C[C@@H](O)[C@H]1C(=O)N2C(C(=O)O)=C(CC[C@H](N)C(=O)O)S[C@H]12,MIC,Escherichia coli,9.67 µg/mL
same,MIC,Enterococcus faecalis,90.5 µg/mL
same,MIC,Salmonella,11.3 µg/mL
same,MIC,Klebsiella,12.1 µg/mL
same,MIC,Staphylococcus,2.33 µg/mL
same,MIC,[1],3.4 µg/mL
same,MIC,Micrococcus luteus,8 µg/mL
same,MIC,Bacillus subtilis,2 µg/mL
same,MIC,Providencia,55.7 µg/mL
same,MIC,[2],17.3 µg/mL
same,MIC,Serratia [3],45.3 µg/mL
same,MIC,Enterobacter,16 µg/mL
same,MIC,Morganella,64 µg/mL
CSC[C@@H](N)C1=C(C(=O)O)N2C(=O)[C@H]([C@@H](C)O)[C@H]2S1,MIC,Escherichia coli,0.707 µg/mL
same,MIC,Enterococcus faecalis,16 µg/mL
same,MIC,Salmonella,0.794 µg/mL
same,MIC,Klebsiella,0.595 µg/mL
same,MIC,Staphylococcus,0.099 µg/mL
same,MIC,[1],0.18 µg/mL
same,MIC,Micrococcus luteus,2 µg/mL
same,MIC,Bacillus subtilis,0.125 µg/mL
same,MIC,Providencia,9.19 µg/mL
same,MIC,[2],1.33 µg/mL
same,MIC,Serratia [3],2.83 µg/mL
same,MIC,Enterobacter,2 µg/mL
same,MIC,Morganella,2 µg/mL
C[C@@H](O)[C@H]1C(=O)N2C(C(=O)O)=C(CN)S[C@H]12,MIC,Escherichia coli,5.15 µg/mL
same,MIC,Enterococcus faecalis,32 µg/mL
same,MIC,Salmonella,3.18 µg/mL
same,MIC,Klebsiella,6.06 µg/mL
same,MIC,Staphylococcus,0.153 µg/mL
same,MIC,[1],0.28 µg/mL
same,MIC,Micrococcus luteus,0.5 µg/mL
same,MIC,Bacillus subtilis,0.5 µg/mL
same,MIC,Providencia,8 µg/mL
same,MIC,[2],6.27 µg/mL
same,MIC,Serratia [6],13.4 µg/mL
same,MIC,Enterobacter,8 µg/mL
same,MIC,Morganella,4 µg/mL
CSCC[C@@H](N)C1=C(C(=O)O)N2C(=O)[C@H]([C@@H](C)O)[C@H]2S1,MIC,Escherichia coli,0.441 µg/mL
same,MIC,Enterococcus faecalis,8.02 µg/mL
same,MIC,Salmonella,0.397 µg/mL
same,MIC,Klebsiella,0.5 µg/mL
same,MIC,Staphylococcus,0.07 µg/mL
same,MIC,[1],0.88 µg/mL
same,MIC,Micrococcus luteus,0.125 µg/mL
same,MIC,Bacillus subtilis,0.125 µg/mL
same,MIC,Providencia,5.28 µg/mL
same,MIC,[2],0.13 µg/mL
same,MIC,Serratia [3],2.83 µg/mL
same,MIC,Enterobacter,1 µg/mL
same,MIC,Morganella,4 µg/mL
C[C@@H](O)[C@H]1C(=O)N2C(C(=O)O)=C(CSC[C@H](N)C(=O)O)S[C@H]12,MIC,Escherichia coli,4 µg/mL
same,MIC,Enterococcus faecalis,22.6 µg/mL
same,MIC,Salmonella,3.18 µg/mL
same,MIC,Klebsiella,4.93 µg/mL
same,MIC,Staphylococcus,0.707 µg/mL
same,MIC,[1],0.94 µg/mL
same,MIC,Micrococcus luteus,0.5 µg/mL
same,MIC,Bacillus subtilis,0.5 µg/mL
same,MIC,Providencia,13.9 µg/mL
same,MIC,[2],6.4 µg/mL
same,MIC,Serratia [6],19 µg/mL
same,MIC,Enterobacter,10.1 µg/mL
same,MIC,Morganella,8 µg/mL
